Key:
Type in all cases: in vivo
Set-up in all cases: key: 0 is no effect; 10 is complete control
corn (Zea mays) = assay: Test B pre-/postemergence; conditions: for Corn plant response rating: Preemergence
Procedure, shortened: (§1)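 Response scores run from 0, meaning no effect, to 10, meaning complete control, assigned by eye relative to controls twelve to sixteen days after spraying. Treatment was both preemergence on planted seed and postemergence on plants at the 1- to 4-leaf stage.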

[1] = tested on: pigweed (Amaranthus retroflexus); assay: Test B pre-/postemergence
Procedure, shortened: as §1

[2] = tested on: sugar beet (Beta vulgaris); assay: Test B pre-/postemergence
Procedure, shortened: as §1

[3] = tested on: velvetleaf (Abutilon theophrasti); assay: Test B pre-/postemergence
Procedure, shortened: as §1

[4] = tested on: wheat (Triticum aestivum); assay: Test B pre-/postemergence
Procedure, shortened: as §1

[5] = tested on: momingglory (Ipomoea hederacea); assay: Test B pre-/postemergence
Procedure, shortened: as §1

[6] = tested on: cocklebur (Xanthium strumarium); assay: Test B pre-/postemergence; conditions: for Cocklebur plant response rating: Preemergence
Procedure, shortened: as §1

[7] = tested on: giant foxtail (Setaria faberii); assay: Test B pre-/postemergence
Procedure, shortened: as §1

[8] = tested on: crabgrass (Digitaria sanguinalis); assay: Test B pre-/postemergence; conditions: for Crabgrass plant response rating: Preemergence
Procedure, shortened: as §1

[9] = tested on: broadleaf signalgrass (Brachiaria decumbens); assay: Test B pre-/postemergence; conditions: for B. signalgrass plant response rating: Preemergence
Procedure, shortened: as §1

[10] = tested on: bedstraw (Galium aparine); assay: Test B pre-/postemergence; conditions: for Bedstraw plant response rating: Preemergence
Procedure, shortened: as §1

rape (Brassica napus) = assay: Test B pre-/postemergence
Procedure, shortened: as §1

soybean (Glycine max) = assay: Test B pre-/postemergence
Procedure, shortened: as §1

[11] = tested on: purple nutsedge (Cyperus rotundus); assay: Test B pre-/postemergence
Procedure, shortened: as §1

wild oat (Avena fatua) = assay: Test B pre-/postemergence
Procedure, shortened: as §1

[12] = tested on: blackgrass (Alopecurus myosuroides); assay: Test B pre-/postemergence; conditions: for Blackgrass plant response rating: Preemergence
Procedure, shortened: as §1

[13] = tested on: bamyardgrass (Echinochloa crus-galli); assay: Test B flood test
Procedure, shortened: (§2)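 Each value is a visual injury score relative to controls, with 10 meaning complete control and 0 no effect. Evaluation took place twelve to sixteen days after the 2-leaf-stage plants were treated and kept in the greenhouse.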

[14] = tested on: duck salad (Heteranthera limosa); assay: Test B flood test
Procedure, shortened: as §2

rice (Oryza sativa) = assay: Test B flood test
Procedure, shortened: as §2

[15] = tested on: smallflower flatsedge (Cyperus difformis); assay: Test B flood test
Procedure, shortened: as §2

[16] = Rate 250 g/ha, Postemergence (so in the source)
[17] = Rate 62 g/ha, Postemergence (flood test)
[18] = Rate 125 g/ha, Postemergence, flood test
[19] = Rate 250 g/ha, Postemergence (flood test species)
[20] = Rate 125 g/ha, Postemergence section (flood test species)

COc1cnc(-n2ccc(C(F)(F)F)n2)nc1Cc1cccc(C(F)(F)F)c1 [Compound 45]
0: Plant response rating, Corn (corn (Zea mays); Rate 62 g/ha, Postemergence) | Corn plant response rating (corn (Zea mays); Rate 62 g/ha) | Plant response rating, Corn (corn (Zea mays); Rate 125 g/ha, Postemergence) | Corn plant response rating (corn (Zea mays); Rate 125 g/ha) | Plant response rating, Corn (corn (Zea mays); Rate 250 g/ha, Postemergence) | Plant response rating, Corn (corn (Zea mays); [16]) | Plant response rating, Redroot pigweed ([1]; Rate 62 g/ha, Postemergence) | Redroot pigweed plant response rating ([1]; Rate 62 g/ha, Preemergence) | Redroot pigweed plant response rating ([1]; Rate 125 g/ha, Postemergence) | Redroot pigweed plant response rating ([1]; Rate 125 g/ha, Preemergence) | Plant response rating, Redroot pigweed ([1]; Rate 250 g/ha, Postemergence) | Plant response rating, Redroot pigweed [1, 16] | Plant response rating, Sugarbeets ([2]; Rate 62 g/ha, Postemergence) | Sugarbeets plant response rating ([2]; Rate 62 g/ha, Preemergence) | Sugarbeets plant response rating ([2]; Rate 125 g/ha, Postemergence) | Plant response rating, Sugarbeets ([2]; Rate 125 g/ha, Preemergence) | Plant response rating, Sugarbeets ([2]; Rate 250 g/ha, Postemergence) | Plant response rating, Sugarbeets [2, 16] | Plant response rating, Velvetleaf ([3]; Rate 62 g/ha, Postemergence) | Velvetleaf plant response rating ([3]; Rate 62 g/ha, Preemergence) | Velvetleaf plant response rating ([3]; Rate 125 g/ha, Postemergence) | Plant response rating, Velvetleaf ([3]; Rate 125 g/ha, Preemergence) | Plant response rating, Velvetleaf ([3]; Rate 250 g/ha, Postemergence) | Plant response rating, Velvetleaf [3, 16] | Wheat plant response rating ([4]; Rate 62 g/ha, Postemergence) | Wheat plant response rating ([4]; Rate 62 g/ha, Preemergence) | Wheat plant response rating ([4]; Rate 125 g/ha, Postemergence) | Plant response rating, Wheat ([4]; Rate 125 g/ha, Preemergence) | Plant response rating, Wheat ([4]; Rate 250 g/ha, Postemergence) | Plant response rating, Wheat [4, 16] | Plant response rating, Morningglory ([5]; Rate 62 g/ha, Postemergence) | Morningglory plant response rating ([5]; Rate 62 g/ha, Preemergence) | Morningglory plant response rating ([5]; Rate 125 g/ha, Postemergence) | Morningglory plant response rating ([5]; Rate 125 g/ha, Preemergence) | Plant response rating, Morningglory ([5]; Rate 250 g/ha, Postemergence) | Plant response rating, Morningglory [5, 16] | Plant response rating, Cocklebur ([6]; Rate 62 g/ha, Postemergence) | Cocklebur plant response rating ([6]; Rate 62 g/ha) | Plant response rating, Cocklebur ([6]; Rate 125 g/ha, Postemergence) | Cocklebur plant response rating ([6]; Rate 125 g/ha) | Plant response rating, Cocklebur ([6]; Rate 250 g/ha, Postemergence) | Plant response rating, Cocklebur [6, 16] | Plant response rating, Giant foxtail ([7]; Rate 62 g/ha, Postemergence) | Giant foxtail plant response rating ([7]; Rate 62 g/ha, Preemergence) | Giant foxtail plant response rating ([7]; Rate 125 g/ha, Postemergence) | Giant foxtail plant response rating ([7]; Rate 125 g/ha, Preemergence) | Plant response rating, Giant foxtail ([7]; Rate 250 g/ha, Postemergence) | Plant response rating, Giant foxtail [7, 16] | Plant response rating, Crabgrass ([8]; Rate 62 g/ha, Postemergence) | Crabgrass plant response rating ([8]; Rate 62 g/ha) | Plant response rating, Crabgrass ([8]; Rate 125 g/ha, Postemergence) | Crabgrass plant response rating ([8]; Rate 125 g/ha) | Plant response rating, Crabgrass ([8]; Rate 250 g/ha, Postemergence) | Plant response rating, Crabgrass [8, 16] | Plant response rating, B. signalgrass ([9]; Rate 62 g/ha, Postemergence) | B. signalgrass plant response rating ([9]; Rate 62 g/ha) | Plant response rating, B. signalgrass ([9]; Rate 125 g/ha, Postemergence) | B. signalgrass plant response rating ([9]; Rate 125 g/ha) | Plant response rating, B. signalgrass ([9]; Rate 250 g/ha, Postemergence) | Plant response rating, B. signalgrass ([9]; Rate 250 g/ha, Postemergence as printed in head r139 (second section for compounds 26-50)) | Plant response rating, Bedstraw ([10]; Rate 62 g/ha, Postemergence) | Bedstraw plant response rating ([10]; Rate 62 g/ha) | Plant response rating, Bedstraw ([10]; Rate 125 g/ha, Postemergence) | Bedstraw plant response rating ([10]; Rate 125 g/ha) | Plant response rating, Bedstraw ([10]; Rate 250 g/ha, Postemergence) | Plant response rating, Bedstraw [10, 16] | Plant response rating, Rape (rape (Brassica napus); Rate 62 g/ha, Postemergence) | Rape plant response rating (rape (Brassica napus); Rate 62 g/ha, Preemergence) | Rape plant response rating (rape (Brassica napus); Rate 125 g/ha, Postemergence) | Rape plant response rating (rape (Brassica napus); Rate 125 g/ha, Preemergence) | Plant response rating, Rape (rape (Brassica napus); Rate 250 g/ha, Postemergence) | Plant response rating, Rape (rape (Brassica napus); [16]) | Plant response rating, Soybean (soybean (Glycine max); Rate 62 g/ha, Postemergence) | Soybean plant response rating (soybean (Glycine max); Rate 62 g/ha, Preemergence) | Soybean plant response rating (soybean (Glycine max); Rate 125 g/ha, Postemergence) | Plant response rating, Soybean (soybean (Glycine max); Rate 125 g/ha, Preemergence) | Plant response rating, Soybean (soybean (Glycine max); Rate 250 g/ha, Postemergence) | Plant response rating, Soybean (soybean (Glycine max); [16]) | Plant response rating, Nutsedge ([11]; Rate 62 g/ha, Postemergence) | Nutsedge plant response rating ([11]; Rate 62 g/ha, Preemergence) | Nutsedge plant response rating ([11]; Rate 125 g/ha, Postemergence) | Nutsedge plant response rating ([11]; Rate 125 g/ha, Preemergence) | Plant response rating, Nutsedge [11, 16] | Wild oats plant response rating (wild oat (Avena fatua); Rate 62 g/ha, Postemergence) | Wild oats plant response rating (wild oat (Avena fatua); Rate 62 g/ha, Preemergence) | Wild oats plant response rating (wild oat (Avena fatua); Rate 125 g/ha, Postemergence) | Plant response rating, Wild oats (wild oat (Avena fatua); Rate 125 g/ha, Preemergence) | Plant response rating, Wild oats (wild oat (Avena fatua); Rate 250 g/ha, Postemergence) | Plant response rating, Wild oats (wild oat (Avena fatua); [16]) | Plant response rating, Blackgrass ([12]; Rate 62 g/ha, Postemergence) | Blackgrass plant response rating ([12]; Rate 62 g/ha) | Plant response rating, Blackgrass ([12]; Rate 125 g/ha, Postemergence) | Blackgrass plant response rating ([12]; Rate 125 g/ha) | Plant response rating, Blackgrass ([12]; Rate 250 g/ha, Postemergence) | Plant response rating, Blackgrass [12, 16] | Plant response rating, Barnyardgrass [13, 17] | Plant response rating, Barnyardgrass [13, 18] | Plant response rating, Barnyardgrass [13, 19] | Plant response rating, Ducksalad [14, 17] | Plant response rating, Ducksalad [14, 18] | Plant response rating, Ducksalad [14, 19] | Plant response rating, Rice (rice (Oryza sativa); [17]) | Rice plant response rating (rice (Oryza sativa); [20]) | Plant response rating, Rice (rice (Oryza sativa); [19]) | Plant response rating, S. Flatsedge [15, 17] | S. Flatsedge plant response rating [15, 20] | Plant response rating, S. Flatsedge [15, 19]

From patent publication US6525001B1, “Substituted pyrimidine and pyridine herbicides” (Mid-American Commercialization Corporation, priority 1997, dated 2003)
